Tests used:
Format in all cases: cell-based
[1] = tested on: MAPK signaling (pAKT, pErk1/2); assay: Western blot of pAKT and pErk1/2 in KRAS mutant A549 cells treated with EGF, Methotrexate, C225 or combination
Method: For Methotrexate treatments, A549 lung tumor cells were treated with 1.0 μM Methotrexate in full serum media for 24 hours followed by withdrawal of Methotrexate and serum starvation (1.0% FBS) for 48 hours in the absence or presence of 5 ng/ml EGF added for the final 10 minutes before harvest of the cells.

[2] = tested on: mutant Ras; assay: Immunocytochemistry staining for RAS in A549 lung tumor cells; settings: A549 lung tumor cell line, 1.0 micromolar, 48 hours
Method: In an exemplary method, the A549 lung tumor cell line was treated for 48 hours with 1.0 micromolar Methotrexate followed by immunocytochemistry staining for RAS on slides.

[3] = tested on: MAPK signaling (pErk1/2); assay: Western blot of pErk1/2 (MAPK signaling) in A549 cells treated with Methotrexate, with or without EGF; settings: as little as 1.0 μM for 24 hours, then serum starvation 48 hours, with or without 10 ng/ml EGF for final 10 minutes (FIG. 3)
Method: Additionally, in vitro cell signaling studies were conduced to examine MAPK signaling in RAS mutant cells treated with Methotrexate. For Methotrexate treatments, A549 lung tumor cells were treated with 1.0 or 10.0 μM Methotrexate in full serum media for 24 hours followed by withdrawal of Methotrexate and serum starvation (1.0% FBS) for 48 hours in the absence or presence of 10 ng/ml EGF added for the final 10 minutes before harvest of the cells. Next, whole cell extracts were isolated for Western blot analysis of pErk1/2 and pAkt. The presence of β-actin served as an internal control for loading differences between lanes.

EGF: epidermal growth factor used to stimulate A549 cells (NSDSECPLSHDGYCLHDGVCMYIEALDKYACNCVVGYIGERCQYRDLKWWELR; Epidermal growth factor; UniProt P01133 971-1023, looked up)
activation of the MAPK pathway (pErk1/2 induction) ([1]; EGF stimulation 5 ng/ml for final 10 minutes): potently activated

CN(Cc1cnc2nc(N)nc(N)c2n1)c1ccc(C(=O)N[C@@H](CCC(=O)O)C(=O)O)cc1 [Methotrexate]
overall abundance of mutant Ras ([2]; vs untreated cells (FIGS. 1 and 2)): diminished
localization of mutant Ras ([2]; vs untreated cells (diffuse and at the membrane)): mislocalization from the plasma membrane resulting in highly cytoplasmic staining of mutant Ras
basal and EGF-induced pErk1/2 levels [3]: reduced both basal and EGF-induce pErk1/2 levels
inhibition of pErk1/2 ([1]; EGF stimulation (5 ng/ml), agent alone: 1.0 μM Methotrexate or C225 up to 25 μg/ml): only slightly inhibited
amount of detectable pAKT and pErk1/2 ([1]; agent by itself (FIG. 4)): slight reduction

— patent publication US20110059081A1, “METHODS AND COMPOSITIONS FOR THE TREATMENT OF RECEPTOR TYROSINE KINASE MEDIATED DISEASES OR DISORDERS” (QUINTILES TRANSNATIONAL CORP., priority 2009, published 2011)
